Results on 26 molecules are retold here after US20240317775A1, “H4 Antagonist Compounds” (HEPTARES THERAPEUTICS LIMITED, priority 2020, published 2024).

In this experiment the target is T1, human H4 receptor (Homo sapiens, UniProt Q9H3N8).
T1 construct: expressed in transfected cells; host or cells: HEKf cells infected with baculovirus
T1 sequence (Q9H3N8 whole entry): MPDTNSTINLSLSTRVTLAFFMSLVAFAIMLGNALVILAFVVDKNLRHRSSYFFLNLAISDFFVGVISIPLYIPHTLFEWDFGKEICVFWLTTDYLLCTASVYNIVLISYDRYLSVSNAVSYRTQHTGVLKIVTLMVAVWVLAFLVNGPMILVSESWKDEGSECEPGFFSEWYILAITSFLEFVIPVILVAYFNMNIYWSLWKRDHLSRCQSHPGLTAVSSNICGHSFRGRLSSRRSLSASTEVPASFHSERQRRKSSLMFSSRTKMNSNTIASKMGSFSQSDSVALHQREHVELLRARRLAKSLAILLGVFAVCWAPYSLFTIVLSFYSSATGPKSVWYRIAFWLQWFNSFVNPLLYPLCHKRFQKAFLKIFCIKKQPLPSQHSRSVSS
Put plainly: H4 Antagonist Functional cAMP Gi Assay. It counts as cell-based. The settings on record: HEKf cells expressing human H4 receptor; functional antagonist pKb by Cheng-Prusoff vs histamine; read-out: Human H4 cAMP fpKb (converted). The procedure: HEKf cells were infected overnight using baculovirus expressing the human H4 receptor, then centrifuged at 1,200 rpm for 5 min, frozen in cell freezing medium (Sigma) and stored at −150° C. On the day of assay, the cells were thawed and resuspended in HBSS with 500 nM IBMX to achieve a density of 1,500 cells/well. H4 ligands were prepared in DMSO and stamped by LabCyte ECHO acoustic dispensing at 25 nL in low volume plates. 10 μL/well cells were plated in the presence of 1 μM forskolin, subjected to centrifugation at 1,200 rpm for 1 min and incubated for 30 min prior to addition of Cisbio cAMP detection reagents to a total volume 20 μL/well. […] Following detection reagent addition and shaking at room temperature for 60 min, cAMP accumulation was measured using HTRF on a PheraStar plate reader. EC50 values were generated using a 4-parameter logistical fit equation to quantify agonist potencies. Functional antagonist affinity values were generated using the Cheng-Prusoff equation to calculate a pKb value using the antagonist assay data.
Turning to `CN[C@@H]1CCN(c2nc(N)nc3c2OCC(C)N3)C1` (stereo partly drawn) [Example 1-2, 7-Methyl-4-((R)-3-(methylamino)pyrrolidin-1-yl)-7,8-dihydro-6H-pyrimido[5,4-b][1,4]oxazin-2-amine], the Kb is 12.6 nM.

Take `CN[C@@H]1CCN(c2nc(N)nc3c2OC[C@@H](C2CC2)N3)C1` [Example 1-6, (R)-7-Cyclopropyl-4-((R)-3-(methylamino)pyrrolidin-1-yl)-7,8-dihydro-6H-pyrimido[5,4-b][1,4]oxazin-2-amine]: the Kb was 0.631 nM.

Regarding `CN[C@@H]1CCN(c2nc(N)nc3c2OCC(CC(C)C)N3)C1` (stereo partly drawn) [Example 1-7, 7-isobutyl-4-((R)-3-(methylamino)pyrrolidin-1-yl)-7,8-dihydro-6H-pyrimido[5,4-b][1,4]oxazin-2-amine], the Kb is 20 nM.

Take `CN[C@@H]1CCN(c2nc(N)nc3c2OC[C@@H]([C@H](C)OC)N3)C1` [Example 1-11, (S)-7-((S)-1-Methoxyethyl)-4-((R)-3-(methylamino)pyrrolidin-1-yl)-7,8-dihydro-6H-pyrimido[5,4-b][1,4]oxazin-2-amine]: the Kb was 15.8 nM.

As for `CN[C@@H]1CCN(c2nc(N)nc3c2OCC(C2COC2)N3)C1` (stereo partly drawn) [Example 1-13, 4-((R)-3-(Methylamino)pyrrolidin-1-yl)-7-(oxetan-3-yl)-7,8-dihydro-6H-pyrimido[5,4-b][1,4]oxazin-2-amine], the Kb was 31.6 nM.

`CN[C@@H]1CCN(c2nc(N)nc3c2O[C@@H](C)[C@@H](C)N3)C1` [Example 1-16, (6S,7R)-6,7-Dimethyl-4-((R)-3-(methylamino)pyrrolidin-1-yl)-7,8-dihydro-6H-pyrimido[5,4-b][1,4]oxazin-2-amine]: the Kb was 31.6 nM.

For the molecule `CN[C@@H]1CCN(c2nc(N)nc3c2O[C@H](C)[C@@H](C)N3)C1` [Example 1-17, (6R,7R)-6,7-Dimethyl-4-((R)-3-(methylamino)pyrrolidin-1-yl)-7,8-dihydro-6H-pyrimido[5,4-b][1,4]oxazin-2-amine], the Kb was 79.4 nM.

On to `CN[C@@H]1CCN(c2nc(N)nc3c2O[C@@H](C)[C@H](C)N3)C1` [Example 1-18, (6S,7S)-6,7-Dimethyl-4-((R)-3-(methylamino)pyrrolidin-1-yl)-7,8-dihydro-6H-pyrimido[5,4-b][1,4]oxazin-2-amine], for which the Kb was 316 nM.

Take `CN[C@@H]1CCN(c2nc(N)nc3c2O[C@H](C)[C@H](C)N3)C1` [Example 1-19, (6R,7S)-6,7-Dimethyl-4-((R)-3-(methylamino)pyrrolidin-1-yl)-7,8-dihydro-6H-pyrimido[5,4-b][1,4]oxazin-2-amine]: the Kb is 79.4 nM.

For `CN[C@@H]1CCN(c2nc(N)nc3c2OCC(C(C)C)N3C)C1` (stereo partly drawn) [Example 1-20, 7-Isopropyl-8-methyl-4-((R)-3-(methylamino)pyrrolidin-1-yl)-7,8-dihydro-6H-pyrimido[5,4-b][1,4]oxazin-2-amine], the Kb is 100 nM.

In the case of `CN[C@@H]1CCN(c2nc(N)nc3c2OC[C@]2(C)CCCN32)C1` [Example 1-23, (S)-6a-Methyl-4-((R)-3-(methylamino)pyrrolidin-1-yl)-6a,7,8,9-tetrahydro-6H-pyrimido[5,4-b]pyrrolo[1,2-d][1,4]oxazin-2-amine], the Kb was 39.8 nM.

As to `CC[C@@H]1COc2c(nc(N)nc2N2CC[C@@H](N)C2)N1` [Example 2-1, (R)-4-((R)-3-Aminopyrrolidin-1-yl)-7-ethyl-7,8-dihydro-6H-pyrimido[5,4-b][1,4]oxazin-2-amine], the Kb was 3.16 nM.

`CO[C@H](C)[C@@H]1COc2c(nc(N)nc2N2CC[C@@H](N)C2)N1` [Example 2-4, (S)-4-((R)-3-Aminopyrrolidin-1-yl)-7-((R)-1-methoxyethyl)-7,8-dihydro-6H-pyrimido[5,4-b][1,4]oxazin-2-amine]: the Kb was 50.1 nM.

In the case of `CO[C@@H](C)[C@@H]1COc2c(nc(N)nc2N2CC[C@@H](N)C2)N1` [Example 2-5, (S)-4-((R)-3-Aminopyrrolidin-1-yl)-7-((S)-1-methoxyethyl)-7,8-dihydro-6H-pyrimido[5,4-b][1,4]oxazin-2-amine], the Kb is 79.4 nM.

Regarding `COC(C)(C)[C@@H]1COc2c(nc(N)nc2N2CC[C@@H](N)C2)N1` [Example 2-6, (S)-4-((R)-3-Aminopyrrolidin-1-yl)-7-(2-methoxypropan-2-yl)-7,8-dihydro-6H-pyrimido[5,4-b][1,4]oxazin-2-amine], the Kb is 20 nM.

As for `CC[C@@H]1COc2c(nc(N)nc2N2CC(NC)C2)N1` [Example 3-1, (R)-7-Ethyl-4-(3-(methylamino)azetidin-1-yl)-7,8-dihydro-6H-pyrimido[5,4-b][1,4]oxazin-2-amine], the Kb was 2 nM.

For the molecule `CNC1CN(c2nc(N)nc3c2OC[C@@H](C2CC2)N3)C1` [Example 3-3, (R)-7-Cyclopropyl-4-(3-(methylamino)azetidin-1-yl)-7,8-dihydro-6H-pyrimido[5,4-b][1,4]oxazin-2-amine], the Kb is 7.94 nM.

For the molecule `CNC1CN(c2nc(N)nc3c2OC[C@@H]([C@H](C)OC)N3)C1` [Example 3-5, (S)-7-((S)-1-Methoxyethyl)-4-(3-(methylamino)azetidin-1-yl)-7,8-dihydro-6H-pyrimido[5,4-b][1,4]oxazin-2-amine], the Kb is 20 nM.

Turning to `CNC1CN(c2nc(N)nc3c2OC[C@@H](C(C)(C)OC)N3)C1` [Example 3-6, (S)-7-(2-Methoxypropan-2-yl)-4-(3-(methylamino)azetidin-1-yl)-7,8-dihydro-6H-pyrimido[5,4-b][1,4]oxazin-2-amine], the Kb was 25.1 nM.

For the molecule `CC[C@@H]1COc2c(nc(N)nc2N2CC(N)C2)N1` [Example 4-1, (R)-4-(3-Aminoazetidin-1-yl)-7-ethyl-7,8-dihydro-6H-pyrimido[5,4-b][1,4]oxazin-2-amine], the Kb is 79.4 nM.

`CC(C)[C@@H]1COc2c(nc(N)nc2N2CC(N)C2)N1` [Example 4-2, (R)-4-(3-Aminoazetidin-1-yl)-7-isopropyl-7,8-dihydro-6H-pyrimido[5,4-b][1,4]oxazin-2-amine]: the Kb was 63.1 nM.

With `CN[C@@H]1CCN(c2ncnc3c2OC[C@@H](C2CC2)N3)C1` [Example 7-2, (R)-1-((R)-7-Cyclopropyl-7,8-dihydro-6H-pyrimido[5,4-b][1,4]oxazin-4-yl)-N-methylpyrrolidin-3-amine], the Kb was 3.16 nM.

As for `CN[C@@H]1CCN(c2ncnc3c2OC[C@@H]([C@@H](C)OC)N3)C1` [Example 7-4, (R)-1-((S)-7-((R)-1-Methoxyethyl)-7,8-dihydro-6H-pyrimido[5,4-b][1,4]oxazin-4-yl)-N-methylpyrrolidin-3-amine], the Kb was 31.6 nM.

For `CN[C@@H]1CCN(c2ncnc3c2OC(C)CN3)C1` (stereo partly drawn) [Example 7-5, (3R)—N-Methyl-1-(6-methyl-7,8-dihydro-6H-pyrimido[5,4-b][1,4]oxazin-4-yl)pyrrolidin-3-amine], the Kb is 251 nM.

Turning to `CO[C@H](C)[C@@H]1COc2c(ncnc2N2CC[C@@H](N)C2)N1` [Example 8-2, (R)-1-((S)-7-((R)-1-Methoxyethyl)-7,8-dihydro-6H-pyrimido[5,4-b][1,4]oxazin-4-yl)pyrrolidin-3-amine], the Kb is 631 nM.

As for `CN[C@@H]1CCN(c2nc(C)nc3c2OCC(C(C)C)N3)C1` (stereo partly drawn) [Example 10-1, (3R)-1-(7-Isopropyl-2-methyl-7,8-dihydro-6H-pyrimido[5,4-b][1,4]oxazin-4-yl)-N-methylpyrrolidin-3-amine], the Kb is 398 nM.
